Assay results reported in PubChem BioAssay (NCI).
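A five-concentration, 48-hour dose response in 96-well plates underlies each endpoint, interpolated linearly between surrounding concentrations. GI50 is the concentration that inhibits growth by half. The concentration for full growth arrest is given as TGI.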

Key:
Assay in all cases: NCI anticancer screen, dose series, 48 h
IGROV1 ovarian = test system: IGROV1 ovarian
NCI-H226 lung = test system: NCI-H226 lung
A498 renal = test system: A498 renal
MDA-MB-231 breast = test system: MDA-MB-231 breast
MALME-3M melanoma = test system: MALME-3M melanoma
PC-3 prostate = test system: PC-3 prostate
OVCAR-8 ovarian = test system: OVCAR-8 ovarian
HCC-2998 colon = test system: HCC-2998 colon
HL-60(TB) leukemia = test system: HL-60(TB) leukemia
MCF7 breast = test system: MCF7 breast
OVCAR-5 ovarian = test system: OVCAR-5 ovarian
DU-145 prostate = test system: DU-145 prostate
SNB-75 CNS = test system: SNB-75 CNS
SF-268 CNS = test system: SF-268 CNS
HT29 colon = test system: HT29 colon
HCT-116 colon = test system: HCT-116 colon
SN12C renal = test system: SN12C renal
RXF 393 renal = test system: RXF 393 renal
RPMI-8226 leukemia = test system: RPMI-8226 leukemia
HOP-62 NSCLC = test system: HOP-62 NSCLC
786-0 renal = test system: 786-0 renal
NCI-H23 lung = test system: NCI-H23 lung
T-47D breast = test system: T-47D breast
U251 CNS = test system: U251 CNS
UO-31 renal = test system: UO-31 renal
BT-549 breast = test system: BT-549 breast
CCRF-CEM leukemia = test system: CCRF-CEM leukemia
HS 578T breast = test system: HS 578T breast
TK-10 renal = test system: TK-10 renal
NCI-H460 lung = test system: NCI-H460 lung
NCI-H522 lung = test system: NCI-H522 lung
UACC-62 melanoma = test system: UACC-62 melanoma
SK-MEL-2 melanoma = test system: SK-MEL-2 melanoma
M14 melanoma = test system: M14 melanoma
SF-539 CNS = test system: SF-539 CNS
NCI/ADR-RES ovarian = test system: NCI/ADR-RES ovarian
SW-620 colon = test system: SW-620 colon
OVCAR-4 ovarian = test system: OVCAR-4 ovarian
SNB-19 CNS = test system: SNB-19 CNS
CAKI-1 renal = test system: CAKI-1 renal
EKVX NSCLC = test system: EKVX NSCLC
COLO 205 colon = test system: COLO 205 colon
SK-OV-3 ovarian = test system: SK-OV-3 ovarian
HCT-15 colon = test system: HCT-15 colon
SF-295 CNS = test system: SF-295 CNS
K-562 leukemia = test system: K-562 leukemia
LOX IMVI melanoma = test system: LOX IMVI melanoma
MDA-MB-435 = test system: MDA-MB-435
A549 NSCLC = test system: A549 NSCLC
UACC-257 melanoma = test system: UACC-257 melanoma
SK-MEL-5 melanoma = test system: SK-MEL-5 melanoma
MOLT-4 leukemia = test system: MOLT-4 leukemia
ACHN renal = test system: ACHN renal
HOP-92 NSCLC = test system: HOP-92 NSCLC
KM12 colon = test system: KM12 colon
SK-MEL-28 melanoma = test system: SK-MEL-28 melanoma

COc1cc(/C=C\c2cc(/C=C\c3ccc(O)c(OC)c3)n(C(=O)COc3ccc(Cl)cc3Cl)n2)ccc1O
GI50 (IGROV1 ovarian): 1990 nM
TGI (IGROV1 ovarian): 10300 nM
GI50 (NCI-H226 lung): 2980 nM
TGI (NCI-H226 lung): 10200 nM
GI50 (A498 renal): 3820 nM
TGI (A498 renal): 12000 nM
GI50 (MDA-MB-231 breast): 2380 nM
TGI (MDA-MB-231 breast): 23400 nM
GI50 (MALME-3M melanoma): 488 nM
TGI (MALME-3M melanoma): 5030 nM
GI50 (PC-3 prostate): 1800 nM
TGI (PC-3 prostate): 8020 nM
GI50 (OVCAR-8 ovarian): 1590 nM
TGI (OVCAR-8 ovarian): 6090 nM
GI50 (HCC-2998 colon): 2890 nM
TGI (HCC-2998 colon): 12400 nM
GI50 (HL-60(TB) leukemia): 314 nM
TGI (HL-60(TB) leukemia): 1310 nM
GI50 (MCF7 breast): 336 nM
TGI (MCF7 breast): 2330 nM
GI50 (OVCAR-5 ovarian): 2710 nM
TGI (OVCAR-5 ovarian): 8320 nM
GI50 (DU-145 prostate): 833 nM
TGI (DU-145 prostate): 9940 nM
GI50 (SNB-75 CNS): 994 nM
TGI (SNB-75 CNS): 7810 nM
GI50 (SF-268 CNS): 621 nM
TGI (SF-268 CNS): 9840 nM
GI50 (HT29 colon): 2750 nM
TGI (HT29 colon): 7030 nM
GI50 (HCT-116 colon): 416 nM
TGI (HCT-116 colon): 6210 nM
GI50 (SN12C renal): 935 nM
TGI (SN12C renal): 65800 nM
GI50 (RXF 393 renal): 1270 nM
TGI (RXF 393 renal): 3330 nM
GI50 (RPMI-8226 leukemia): 569 nM
TGI (RPMI-8226 leukemia): 7620 nM
GI50 (HOP-62 NSCLC): 519 nM
TGI (HOP-62 NSCLC): 3160 nM
GI50 (786-0 renal): 634 nM
TGI (786-0 renal): 2520 nM
GI50 (NCI-H23 lung): 1060 nM
TGI (NCI-H23 lung): 5000 nM
GI50 (T-47D breast): 1250 nM
TGI (T-47D breast): 3990 nM
GI50 (U251 CNS): 916 nM
TGI (U251 CNS): 6150 nM
GI50 (UO-31 renal): 362 nM
TGI (UO-31 renal): 2300 nM
GI50 (BT-549 breast): 526 nM
TGI (BT-549 breast): 3340 nM
GI50 (CCRF-CEM leukemia): 432 nM
TGI (CCRF-CEM leukemia): > 100000 nM
GI50 (HS 578T breast): 1200 nM
TGI (HS 578T breast): > 100000 nM
GI50 (TK-10 renal): 1790 nM
TGI (TK-10 renal): 8060 nM
GI50 (NCI-H460 lung): 517 nM
TGI (NCI-H460 lung): 14200 nM
GI50 (NCI-H522 lung): 196 nM
TGI (NCI-H522 lung): 837 nM
GI50 (UACC-62 melanoma): 552 nM
TGI (UACC-62 melanoma): 12000 nM
GI50 (SK-MEL-2 melanoma): 302 nM
TGI (SK-MEL-2 melanoma): 1540 nM
GI50 (M14 melanoma): 349 nM
TGI (M14 melanoma): 4830 nM
GI50 (SF-539 CNS): 380 nM
TGI (SF-539 CNS): 2850 nM
GI50 (NCI/ADR-RES ovarian): 538 nM
TGI (NCI/ADR-RES ovarian): 21100 nM
GI50 (SW-620 colon): 659 nM
TGI (SW-620 colon): > 100000 nM
GI50 (OVCAR-4 ovarian): 1290 nM
TGI (OVCAR-4 ovarian): > 100000 nM
GI50 (SNB-19 CNS): 1410 nM
TGI (SNB-19 CNS): 11700 nM
GI50 (CAKI-1 renal): 818 nM
TGI (CAKI-1 renal): > 100000 nM
GI50 (EKVX NSCLC): 1980 nM
TGI (EKVX NSCLC): 9720 nM
GI50 (COLO 205 colon): 1980 nM
TGI (COLO 205 colon): 4010 nM
GI50 (SK-OV-3 ovarian): 1260 nM
TGI (SK-OV-3 ovarian): 3430 nM
GI50 (HCT-15 colon): 342 nM
TGI (HCT-15 colon): 3610 nM
GI50 (SF-295 CNS): 3070 nM
TGI (SF-295 CNS): 8870 nM
GI50 (K-562 leukemia): 381 nM
TGI (K-562 leukemia): > 100000 nM
GI50 (LOX IMVI melanoma): 497 nM
TGI (LOX IMVI melanoma): 3290 nM
GI50 (MDA-MB-435): 243 nM
TGI (MDA-MB-435): 14700 nM
GI50 (A549 NSCLC): 1310 nM
TGI (A549 NSCLC): 10300 nM
GI50 (UACC-257 melanoma): 2190 nM
TGI (UACC-257 melanoma): 7130 nM
GI50 (SK-MEL-5 melanoma): 661 nM
TGI (SK-MEL-5 melanoma): 3030 nM
GI50 (MOLT-4 leukemia): 425 nM
TGI (MOLT-4 leukemia): 3460 nM
GI50 (ACHN renal): 476 nM
TGI (ACHN renal): 9130 nM
GI50 (HOP-92 NSCLC): 2930 nM
TGI (HOP-92 NSCLC): 7940 nM
GI50 (KM12 colon): 506 nM
TGI (KM12 colon): 26200 nM
GI50 (SK-MEL-28 melanoma): 1190 nM
TGI (SK-MEL-28 melanoma): 7320 nM
